{"source": "ChEMBL document CHEMBL1147084", "about": "“From the Cover: Antipsychotic drug-induced weight gain mediated by histamine H1 receptor-linked activation of hypothalamic AMP-kinase” (Proc Natl Acad Sci U S A, 2007)", "key": {"Mus musculus [1]": {"test_system": "Mus musculus", "test": "Increase in phospho-AMPK levels in intact H1RKO mouse hypothalamus at 3 mg/kg, ip after 3 hrs by Western blotting", "assay_type": "functional, organism-based", "design": "dose 3 mg/kg"}, "Hypothalamus": {"test_system": "Hypothalamus", "test": "Increase in phospho-AMPK levels in H1RKO mouse hyphalamic slices at 500 nM after 30 mins by Western blotting", "assay_type": "functional, tissue-based"}, "Mus musculus [2]": {"test_system": "Mus musculus", "test": "Increase in phospho-AMPK level in paraventricular hyphalamic nuclei intact H1RKO mouse at 3 mg/kg, ip after 3 hrs by immunohistochemistry", "assay_type": "functional, organism-based", "design": "dose 3 mg/kg"}, "Mus musculus [3]": {"organism": "Mus musculus", "test": "Orexigenic activity in H1RKO mouse", "assay_type": "functional, organism-based"}, "Histamine H1 receptor": {"target": "Histamine H1 receptor (Rattus norvegicus, UniProt P31390)", "sequence (P31390 whole entry)": "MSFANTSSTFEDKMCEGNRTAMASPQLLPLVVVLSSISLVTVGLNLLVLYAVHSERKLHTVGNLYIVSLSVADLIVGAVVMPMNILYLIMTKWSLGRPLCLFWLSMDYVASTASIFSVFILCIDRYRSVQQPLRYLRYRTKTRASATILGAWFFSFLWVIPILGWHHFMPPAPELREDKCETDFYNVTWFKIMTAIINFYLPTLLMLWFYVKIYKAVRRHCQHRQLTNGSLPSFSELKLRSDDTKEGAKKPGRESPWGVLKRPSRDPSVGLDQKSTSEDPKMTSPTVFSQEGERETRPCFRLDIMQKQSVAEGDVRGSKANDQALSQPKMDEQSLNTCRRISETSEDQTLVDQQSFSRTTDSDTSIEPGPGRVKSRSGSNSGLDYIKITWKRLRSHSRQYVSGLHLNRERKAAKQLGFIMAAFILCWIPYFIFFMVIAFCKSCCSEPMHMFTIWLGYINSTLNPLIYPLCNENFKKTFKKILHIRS", "test": "biochemical", "description": "Displacement of [3H]mepyramine from H1R in rat brain"}, "Mus musculus [4]": {"test_system": "Mus musculus", "test": "Increase in cortical alpha-2AMPK levels in intact H1RKO mouse at 5 mg/kg after 3 hrs", "assay_type": "functional"}, "Mus musculus [5]": {"test_system": "Mus musculus", "test": "Increase in phospho-AMPK levels in intact H1RKO mouse hypothalamus at 1 mg/kg after 3 hrs", "assay_type": "functional, organism-based", "design": "dose 1 mg/kg"}, "Mus musculus [6]": {"test_system": "Mus musculus", "test": "Increase in phospho-AMPK level in paraventricular hyphalamic nuclei intact H1RKO mouse at 5 mg/kg after 3 hrs by immunohistochemistry", "assay_type": "functional, organism-based", "design": "dose 5 mg/kg"}, "[7]": {"target": "T1, Leptin receptor (Homo sapiens) (UniProt P48357)", "T1 sequence (whole entry)": "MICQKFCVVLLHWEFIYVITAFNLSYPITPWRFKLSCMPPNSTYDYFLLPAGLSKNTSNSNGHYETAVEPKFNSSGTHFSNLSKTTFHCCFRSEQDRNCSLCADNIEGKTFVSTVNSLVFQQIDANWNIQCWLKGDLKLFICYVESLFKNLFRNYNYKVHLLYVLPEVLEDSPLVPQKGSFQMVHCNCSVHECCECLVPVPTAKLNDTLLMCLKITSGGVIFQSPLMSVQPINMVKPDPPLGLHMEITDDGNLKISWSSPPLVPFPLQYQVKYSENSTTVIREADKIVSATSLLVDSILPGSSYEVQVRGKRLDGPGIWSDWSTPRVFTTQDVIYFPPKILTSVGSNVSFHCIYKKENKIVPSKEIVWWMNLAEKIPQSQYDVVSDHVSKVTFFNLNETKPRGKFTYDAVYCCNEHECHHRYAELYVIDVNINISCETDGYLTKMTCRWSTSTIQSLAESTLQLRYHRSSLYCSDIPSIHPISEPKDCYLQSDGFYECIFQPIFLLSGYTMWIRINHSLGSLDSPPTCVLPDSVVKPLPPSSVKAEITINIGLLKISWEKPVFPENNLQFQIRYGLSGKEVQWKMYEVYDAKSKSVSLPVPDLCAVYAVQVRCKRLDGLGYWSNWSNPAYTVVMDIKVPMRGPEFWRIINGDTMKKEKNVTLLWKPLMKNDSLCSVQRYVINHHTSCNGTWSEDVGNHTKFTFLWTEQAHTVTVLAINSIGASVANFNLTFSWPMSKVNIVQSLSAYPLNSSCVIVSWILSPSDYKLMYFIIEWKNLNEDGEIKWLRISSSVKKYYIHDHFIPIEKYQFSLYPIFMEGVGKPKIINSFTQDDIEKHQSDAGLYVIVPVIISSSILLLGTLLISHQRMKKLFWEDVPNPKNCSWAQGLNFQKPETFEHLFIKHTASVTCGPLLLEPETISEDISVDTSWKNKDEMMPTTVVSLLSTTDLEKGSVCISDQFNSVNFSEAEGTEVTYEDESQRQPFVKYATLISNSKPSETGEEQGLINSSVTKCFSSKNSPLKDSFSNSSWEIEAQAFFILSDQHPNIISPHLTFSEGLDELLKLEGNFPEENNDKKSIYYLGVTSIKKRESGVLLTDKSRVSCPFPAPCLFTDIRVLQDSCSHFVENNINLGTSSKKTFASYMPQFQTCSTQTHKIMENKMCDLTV", "test": "Binding affinity to leptin receptor at 100 nM"}, "Mus musculus [8]": {"organism": "Mus musculus", "test": "Reversal of insulin-induced reduction in hyphalamic phospho-AMPK level in H1RKO mouse at 50 nM after 30 mins by Western blotting", "assay_type": "functional, organism-based"}, "Mus musculus [9]": {"organism": "Mus musculus", "test": "Reversal of histamine-induced reduction in hyphalamic phospho-AMPK level in H1RKO mouse at 200 nM after 30 mins by Western blotting", "assay_type": "functional, organism-based"}, "Mus musculus [10]": {"test_system": "Mus musculus", "test": "Increase in phospho-AMPK levels in intact H1RKO mouse liver at 1 mg/kg, ip after 3 hrs by Western blotting", "assay_type": "functional, organism-based", "design": "dose 1 mg/kg"}, "Mus musculus [11]": {"test_system": "Mus musculus", "test": "Increase in alpha-2AMPK levels in intact H1RKO mouse cerebellum at 1 mg/kg after 3 hrs", "assay_type": "functional, organism-based", "design": "dose 1 mg/kg"}, "Mus musculus [12]": {"test_system": "Mus musculus", "test": "Increase in phospho-AMPK level in paraventricular hyphalamic nuclei intact H1RKO mouse at 1 mg/kg after 3 hrs by immunohistochemistry", "assay_type": "functional, organism-based", "design": "dose 1 mg/kg"}, "Mus musculus [13]": {"test_system": "Mus musculus", "test": "Increase in alpha-2AMPK levels in intact H1RKO mouse hypothalamus at 1 mg/kg after 3 hrs", "assay_type": "functional, organism-based", "design": "dose 1 mg/kg"}, "[14]": {"test": "Binding affinity to alphaMSH receptor at 100 nM"}, "[15]": {"test": "Binding affinity to alphaMSH receptor at 10 nM"}, "Mus musculus [16]": {"organism": "Mus musculus", "test": "Reversal of leptin-induced reduction in hyphalamic phospho-AMPK level in H1RKO mouse at 50 nM after 30 mins by Western blotting", "assay_type": "functional, organism-based"}, "Mus musculus [17]": {"test_system": "Mus musculus", "test": "Increase in alpha-2AMPK levels in intact H1RKO mouse cerebellum at 5 mg/kg after 3 hrs", "assay_type": "functional, organism-based", "design": "dose 5 mg/kg"}, "Mus musculus [18]": {"test_system": "Mus musculus", "test": "Reversal of leptin-induced reduction in hyphalamic phospho-AMPK in H1RKO mouse at 5 mg/kg after 3 hrs by Western blotting", "assay_type": "functional, organism-based", "design": "dose 5 mg/kg"}, "Mus musculus [19]": {"test_system": "Mus musculus", "test": "Increase in phospho-AMPK levels in intact H1RKO mouse cerebellum at 1 mg/kg, ip after 3 hrs by Western blotting", "assay_type": "functional, organism-based", "design": "dose 1 mg/kg"}, "[20]": {"target": "T2, Neuropeptide Y receptor type 1 (Homo sapiens) (UniProt P25929)", "T2 sequence (whole entry)": "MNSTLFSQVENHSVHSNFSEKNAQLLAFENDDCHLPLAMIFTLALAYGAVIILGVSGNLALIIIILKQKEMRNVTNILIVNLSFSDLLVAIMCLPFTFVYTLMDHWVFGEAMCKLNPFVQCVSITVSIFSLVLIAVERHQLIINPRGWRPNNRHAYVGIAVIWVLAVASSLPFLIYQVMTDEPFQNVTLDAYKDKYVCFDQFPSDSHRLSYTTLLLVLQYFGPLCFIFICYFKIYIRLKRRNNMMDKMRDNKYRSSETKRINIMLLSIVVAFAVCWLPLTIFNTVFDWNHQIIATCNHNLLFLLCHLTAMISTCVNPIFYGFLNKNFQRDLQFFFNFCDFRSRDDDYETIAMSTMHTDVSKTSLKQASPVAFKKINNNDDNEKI", "test": "Binding affinity to neuropeptide Y receptor at 10 nM"}, "Mus musculus [21]": {"test_system": "Mus musculus", "test": "Increase in phospho-AMPK level in arcuate hyphalamic nuclei intact H1RKO mouse at 5 mg/kg after 3 hrs by immunohistochemistry", "assay_type": "functional, organism-based", "design": "dose 5 mg/kg"}, "[22]": {"target": "T1, Leptin receptor (Homo sapiens)", "test": "Binding affinity to leptin receptor at 10 nM"}, "Mus musculus [23]": {"test_system": "Mus musculus", "test": "Reversal of leptin-induced reduction in hyphalamic alpha-2AMPK activity in H1RKO mouse at 5 mg/kg", "assay_type": "functional, organism-based", "design": "dose 5 mg/kg"}, "Mus musculus [24]": {"test_system": "Mus musculus", "test": "Increase in phospho-AMPK level in arcuate hyphalamic nuclei intact H1RKO mouse at 1 mg/kg after 3 hrs by immunohistochemistry", "assay_type": "functional, organism-based", "design": "dose 1 mg/kg"}, "[25]": {"target": "T2, Neuropeptide Y receptor type 1 (Homo sapiens)", "test": "Binding affinity to neuropeptide Y receptor at 100 nM"}, "Mus musculus [26]": {"test_system": "Mus musculus", "test": "Increase in alpha-2AMPK levels in intact H1RKO mouse cerebral cortex at 1 mg/kg after 3 hrs", "assay_type": "functional, organism-based", "design": "dose 1 mg/kg"}, "Mus musculus [27]": {"test_system": "Mus musculus", "test": "Increase in phospho-AMPK in H1R knockout mouse at 3 mg/kg by immunohistochemistry", "assay_type": "functional, organism-based", "design": "dose 3 mg/kg"}}, "note": "The source made the active and inactive calls. The calls are words filed in the database; no cut-off is given here."}
{"molecule": "Cc1ccc(/C(=C\\CN2CCCC2)c2ccccn2)cc1", "values": [{"measurement": "Activity", "setting": "Mus musculus [1]", "result": "Active"}, {"measurement": "Activity", "setting": "Hypothalamus", "result": "Active"}]}
{"molecule": "O=C1Cc2cc(CCN3CCN(c4nsc5ccccc45)CC3)c(Cl)cc2N1", "values": [{"measurement": "Activity", "setting": "Mus musculus [2]", "result": "inactive"}, {"measurement": "Activity", "setting": "Hypothalamus", "result": "inactive"}, {"measurement": "Activity", "setting": "Mus musculus [3]", "result": "inactive"}]}
{"molecule": "Cc1nc2n(c(=O)c1CCN1CCC(c3noc4cc(F)ccc34)CC1)CCCC2", "values": [{"measurement": "Activity", "setting": "Hypothalamus", "result": "inactive"}]}
{"molecule": "O=C(CCCN1CCC(O)(c2ccc(Cl)cc2)CC1)c1ccc(F)cc1", "values": [{"measurement": "Activity", "setting": "Hypothalamus", "result": "inactive"}, {"measurement": "Activity", "setting": "Mus musculus [3]", "result": "inactive"}]}
{"molecule": "OCCOCCN1CCN(C2=Nc3ccccc3Sc3ccccc32)CC1", "values": [{"measurement": "Activity", "setting": "Hypothalamus", "result": "Active"}, {"measurement": "Activity", "setting": "Mus musculus [3]", "result": "Active"}]}
{"molecule": "O=C1CCc2ccc(OCCCCN3CCN(c4cccc(Cl)c4Cl)CC3)cc2N1", "note": "[ARIPIPRAZOLE]", "values": [{"measurement": "IC50", "setting": "Histamine H1 receptor", "result": "> 3", "unit": "µM"}, {"measurement": "Activity", "setting": "Hypothalamus", "result": "inactive"}, {"measurement": "Activity", "setting": "Mus musculus [3]", "result": "inactive"}]}
{"molecule": "CN1CCN(C2=Nc3cc(Cl)ccc3Nc3ccccc32)CC1", "note": "[CLOZAPINE]", "values": [{"measurement": "Activity", "setting": "Mus musculus [4]", "result": 20, "unit": "%"}, {"measurement": "Activity", "setting": "Mus musculus [5]", "result": "Active"}, {"measurement": "Activity", "setting": "Mus musculus [6]", "result": "Active"}, {"measurement": "Activity", "setting": "[7]", "result": "inactive"}, {"measurement": "Activity", "setting": "Mus musculus [8]", "result": "Active"}, {"measurement": "Activity", "setting": "Mus musculus [9]", "result": "Active"}, {"measurement": "Activity", "setting": "Hypothalamus", "result": "Active"}, {"measurement": "Activity", "setting": "Mus musculus [10]", "result": "inactive"}, {"measurement": "Activity", "setting": "Mus musculus [11]", "result": "inactive"}, {"measurement": "Activity", "setting": "Mus musculus [12]", "result": "Active"}, {"measurement": "Activity", "setting": "Mus musculus [13]", "result": "Active"}, {"measurement": "Activity", "setting": "[14]", "result": "inactive"}, {"measurement": "Activity", "setting": "[15]", "result": "inactive"}, {"measurement": "Activity", "setting": "Mus musculus [16]", "result": "Active"}, {"measurement": "Activity", "setting": "Mus musculus [17]", "result": "inactive"}, {"measurement": "Activity", "setting": "Mus musculus [18]", "result": "Active"}, {"measurement": "Activity", "setting": "Mus musculus [19]", "result": "inactive"}, {"measurement": "Activity", "setting": "[20]", "result": "inactive"}, {"measurement": "Activity", "setting": "Mus musculus [3]", "result": "Active"}, {"measurement": "Activity", "setting": "Mus musculus [21]", "result": "Active"}, {"measurement": "Activity", "setting": "[22]", "result": "inactive"}, {"measurement": "Activity", "setting": "Mus musculus [23]", "result": "Active"}, {"measurement": "Activity", "setting": "Mus musculus [24]", "result": "Active"}, {"measurement": "Activity", "setting": "[25]", "result": "inactive"}, {"measurement": "Activity", "setting": "Mus musculus [26]", "result": "inactive"}, {"measurement": "Activity", "setting": "Mus musculus [27]", "result": "inactive"}]}
{"molecule": "Cc1cc2c(s1)Nc1ccccc1N=C2N1CCN(C)CC1", "values": [{"measurement": "Activity", "setting": "[7]", "result": "inactive"}, {"measurement": "Activity", "setting": "Hypothalamus", "result": "Active"}, {"measurement": "Activity", "setting": "[14]", "result": "inactive"}, {"measurement": "Activity", "setting": "[15]", "result": "inactive"}, {"measurement": "Activity", "setting": "[20]", "result": "inactive"}, {"measurement": "Activity", "setting": "Mus musculus [3]", "result": "Active"}, {"measurement": "Activity", "setting": "[22]", "result": "inactive"}, {"measurement": "Activity", "setting": "[25]", "result": "inactive"}]}
